According to the NIST ThermoML archive (doi:10.1021/je9006037):

Experiment: refractive index (Na D-line) (dimensionless); xn = mol fraction of the nth substance listed
Conditions: 101 kPa, Liquid

CCn1cc[n+](C)c1.O=S(=O)([O-])C(F)(F)F [1-ethyl-3-methylimidazolium trifluoromethanesulfonate] + CCCO
refractive index
Conditions | 288.15 K | 298.15 K | 308.15 K | 318.15 K | 328.15 K | 338.15 K
x1 = 0.05007 | 1.39381 | 1.38991 | 1.38613 | 1.38243 | 1.37892 | 1.37545
x1 = 0.1013 | 1.39933 | 1.39557 | 1.39221 | 1.38877 | 1.38613 | 1.38306
x1 = 0.1503 | 1.40371 | 1.4001 | 1.3968 | 1.3938 | 1.39112 | 1.38856
x1 = 0.2001 | 1.40743 | 1.404 | 1.4009 | 1.39795 | 1.39522 | 1.39266
x1 = 0.2497 | 1.41088 | 1.40747 | 1.40434 | 1.40127 | 1.39872 | 1.39631
x1 = 0.3008 | 1.41391 | 1.41061 | 1.40747 | 1.40445 | 1.40173 | 1.39926
x1 = 0.3996 | 1.41854 | 1.41537 | 1.41218 | 1.40923 | 1.40634 | 1.40392
x1 = 0.4965 | 1.42297 | 1.41986 | 1.41681 | 1.41376 | 1.41082 | 1.4078
x1 = 0.602 | 1.42671 | 1.42372 | 1.42062 | 1.41752 | 1.41447 | 1.41163
x1 = 0.7043 | 1.42943 | 1.42647 | 1.42347 | 1.42076 | 1.41793 | 1.41508
x1 = 0.7945 | 1.43174 | 1.42886 | 1.42604 | 1.42323 | 1.4204 | 1.41758
x1 = 0.8421 | 1.4325 | 1.42963 | 1.4268 | 1.42398 | 1.42115 | 1.41838
x1 = 0.8988 | 1.43378 | 1.43096 | 1.42815 | 1.42533 | 1.42258 | 1.41984
x1 = 1 | 1.43599 | 1.43322 | 1.4304 | 1.42767 | 1.42494 | 1.42222

CCn1cc[n+](C)c1.O=S(=O)([O-])C(F)(F)F [1-ethyl-3-methylimidazolium trifluoromethanesulfonate] + CC(C)O
refractive index
Conditions | 288.15 K | 298.15 K | 308.15 K | 318.15 K | 328.15 K | 338.15 K
x1 = 0.04997 | 1.38697 | 1.38304 | 1.37919 | 1.3753 | 1.37148 | 1.36735
x1 = 0.09937 | 1.39302 | 1.38935 | 1.38578 | 1.38236 | 1.37896 | 1.37487
x1 = 0.1504 | 1.39853 | 1.39494 | 1.39186 | 1.38861 | 1.38506 | 1.38103
x1 = 0.1995 | 1.40326 | 1.39957 | 1.39662 | 1.39356 | 1.39032 | 1.38662
x1 = 0.2508 | 1.40739 | 1.40382 | 1.40089 | 1.39817 | 1.39474 | 1.3916
x1 = 0.2997 | 1.411 | 1.4074 | 1.40439 | 1.40147 | 1.3983 | 1.39544
x1 = 0.3988 | 1.41689 | 1.41365 | 1.41071 | 1.40758 | 1.40457 | 1.40189
x1 = 0.5014 | 1.42209 | 1.41872 | 1.41564 | 1.41261 | 1.40972 | 1.4068
x1 = 0.6012 | 1.42562 | 1.42259 | 1.41956 | 1.41667 | 1.41379 | 1.41098
x1 = 0.6972 | 1.42868 | 1.42574 | 1.42285 | 1.41998 | 1.41714 | 1.41431
x1 = 0.7978 | 1.43159 | 1.42861 | 1.42579 | 1.42298 | 1.42017 | 1.41738
x1 = 0.8342 | 1.43251 | 1.42965 | 1.42678 | 1.42395 | 1.42115 | 1.41837
x1 = 0.8905 | 1.43379 | 1.43098 | 1.42818 | 1.42541 | 1.42264 | 1.41986
x1 = 1 | 1.43599 | 1.43322 | 1.4304 | 1.42767 | 1.42494 | 1.42222
